Here are results for nine molecules from US12018029B2, “Hexahydropyrrolo[3,4-c]pyrrole derivatives useful as LOX inhibitors” (THE INSTITUTE OF CANCER RESEARCH: ROYAL CANCER HOSPITAL, priority 2018, dated 2024).

In one assay the target is T1, LOX (Mus musculus, UniProt P28301).
T1 construct: Full length LOX cDNA was then PCR cloned into pEGFP-N1 (Clonetech), or biosensor vector proGFP2-N1; expressed in transfected cells; host or cells: MDCK cells grown as cysts on Matrigel
T1 sequence (P28301 163-411): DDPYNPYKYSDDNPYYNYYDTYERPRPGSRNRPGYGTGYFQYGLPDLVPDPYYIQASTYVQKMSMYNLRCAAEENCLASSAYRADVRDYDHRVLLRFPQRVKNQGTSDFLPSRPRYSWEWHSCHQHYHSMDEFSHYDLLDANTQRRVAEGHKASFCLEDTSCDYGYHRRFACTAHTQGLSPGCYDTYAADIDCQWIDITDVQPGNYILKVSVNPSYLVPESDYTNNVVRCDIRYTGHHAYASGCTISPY
In words: LOX activity in cysts assay (roGFP2 LOX biosensor in MDCK cysts). Type of assay: cell-based. Particulars: for inhibition at 10 µM: read-out: LOX biosensor inhibition (cyst) @ 10 μM. As to the method: LOX Activity in Cysts Assay (Tang et al, 2017).
Cell Culture and Transfection
Cell lines were purchased from American Type Culture Collection (ATCC). […] MDCK cell lines were cultured in Dulbecco's Modified Eagle Medium (DMEM):F12 media supplemented with 10% foetal bovine serum (FBS) and 1% Penicillin Streptomycin solution (Pen Strep). Cells were incubated at 37° C. in a humidified incubator with 5% CO2. Lipofectamine 3000 or lentivirus was used to transfect MDCK cells with GFP constructs and cells were selected with G418 (Life Technologies) at 5 mg/ml. Cell culture reagents were purchased from Life Technologies.
To produce MDCK cysts, cells were cultured on Matrigel (Corning) with 2% Matrigel supplemented in DMEM with 10% FBS. Cysts were allowed to form for 10 days before subsequent studies.
Cloning of LOX Expression Constructs
Mouse LOX cDNA was purchased from OriGene. Full length LOX cDNA was then PCR cloned into pEGFP-N1 (Clonetech), or biosensor vector proGFP2-N1 (Hanson, 2004) using the following primers, […] (forward primer) and […] (reverse primer). For the insertion into pEGFP-N1 or proGFP2-N1, NheI and XhoI restriction sites were added to forward and reverse primers accordingly. Mutant LOX constructs were made using QuickChange II site-directed mutagenesis kit (Agilent Technologies) following manufacture's protocol using LOX-GFP as template. To generate, roGFP2 versions of LOX mutant constructs, LOX mutant cDNA was transferred from pEGFP-N1 to proGFP2-N1 using NheI and XhoI.
Confocal Imaging and Imaging Analysis
Photomicrographs of live MDCK cysts with a Leica TCS SP8 X confocal system were used to image the biosensor. The oxidised biosensor was excited using a 405 nm laser, while the reduced biosensor was excited with a 488 nm laser. Emission of the biosensor was recorded at 500 nm˜530 nm range using sequential scans. Ratio images were generated following a published protocol {Kardash, 2011 #376}. Note, while the published protocol generates YFP/CFP ratio images, we used it to generate Oxidised/Reduced (roGFP2 ratio) ratio images. The roGFP2 ratio at the basal surface of MDCK cysts was used to indicate LOX inhibition. LOX inhibitors were added 30 min prior to imaging.
The inhibition of LOX in cysts treated with LOX inhibitors compared to control (DMSO vehicle treated) cysts is shown in Table 2. For clarity, readout for DMSO treated cysts represents 0% inhibition (no inhibition) and readout for BAPN at 1 mM is used as 100% inhibition (full inhibition).

For assay [1], the system named is PDAC KPC TRP53 R172H (p53 mut) cells. The assay is described as follows: PDAC allograft, primary tumour, R172H (p53 mut). Type of assay: in vivo, mouse. Particulars: ratio of average tumour volume treated/vehicle; 200 mg/kg po qd; p<0.05. As to the method:
All procedures involving animals were approved by the Animal Welfare and Ethical Review Body of the Institute of Cancer Research and Cancer Research UK Manchester Institute in accordance with National Home Office regulations under the Animals (Scientific Procedures) Act 1986 and according to the guidelines of the Committee of the National Cancer Research Institute Tumour size was determined by caliper measurements of tumour length, width and depth and volume was calculated as volume=0.5236×length×width×depth (mm).
PDAC allografts: CD1 nu/nu female mice at 6 weeks of age were inoculated subcutaneously in the right flank with 2×10^6 PDAC KPC TRP53 R172H (p53 mut) cells at 100 ul suspension per animal. […] Tumours and weights are measured twice weekly using calipers. […] Frozen samples kept at −80 degree centigrade until being analysed and the fixed samples stained according to the desired marker.
For therapeutic efficacy assessment, the ratio of average tumour volume between compound treated and vehicle control treated (T/C) is calculated. […] The efficacy of LOX inhibitors described in this invention, as measured by T/C in a pancreatic cancer model, a colorectal cancer model and a breast cancer model is shown in Table 3 and is significant (p<0.05) for all the data presented.

Assay [2] concerns PDAC KP^flC (LOX H1 clone) cells. In words: PDAC allograft, primary tumour, p53 wt, LOX o/e. Type of assay: in vivo, mouse. Particulars: ratio of average tumour volume treated/vehicle; 200 mg/kg po qd; p<0.05.
The mark [3] stands for this setting: 10 μM, MDCK cysts, DMSO = 0% inhibition, BAPN at 1 mM = 100% inhibition, inhibitors added 30 min prior to imaging.

Like-named read-outs stand apart in the source and are kept apart here.

What is called inhibition is the change of the read-out against control, counted positive when it falls. As to `CCOc1ccc(N2C[C@H]3CN(C(=O)N4CCOCC4)C[C@H]3C2)cc1` [Example 37], the inhibition at 10 µM at LOX (setting [3]) turned out to be 100%.

Broadly, the IC50 is the concentration that inhibits the measured activity by half. `CCOc1ccc(N2C[C@]3(C)CN(C(=O)NCCO)C[C@]3(C)C2)cc1` [Example 3, cis-5-(4-Ethoxyphenyl)-N-(2-hydroxyethyl)-3a,6a-dimethylhexahydropyrrolo[3,4-c]pyrrole-2(1H)-carboxamide]: the IC50 at LOX (MDCK cysts, read-out: LOX biosensor IC50 (cyst)) was determined as 1.62 µM. Besides, on LOX (MDCK), the inhibition at 10 µM was 100%. Moreover, the “T/C, PDAC (mouse pancreatic carcinoma) primary tumour a) R172H (p53mut)” value in assay [1] is “a) 0.58”. Also, the “T/C, PDAC (mouse pancreatic carcinoma) primary tumour b) p53wt, LOX o/e” value in assay [2] is “b) 0.42”.

For `C[C@@]12CN(C(=O)NCCO)C[C@]1(C)CN(c1ccc(N3CCS(=O)(=O)CC3)cc1)C2` [Example 30, cis-5-(4-(1,1-Dioxidothiomorpholino)phenyl)-N-(2-hydroxyethyl)-3a,6a-dimethylhexahydropyrrolo[3,4-c]pyrrole-2(1H)-carboxamide], the inhibition at 10 µM on LOX (setting [3]) was found to be 59%.

On to `CCOc1ccc(N2C[C@H]3CN(C(=O)N4CCC(C#N)CC4)C[C@H]3C2)cc1` [Example 42, 1-(cis-5-(4-ethoxyphenyl)octahydropyrrolo[3,4-c]pyrrole-2-carbonyl)piperidine-4-carbonitrile], for which the inhibition at 10 µM on LOX (setting [3]) is 72%.

As to `CCOc1ccc(N2C[C@H]3CN(CCCC#N)C[C@H]3C2)cc1` [Example 2, cis-4-(5-(4-Ethoxyphenyl)hexahydropyrrolo[3,4-c]pyrrol-2(1H)-yl)butanenitrile], the inhibition at 10 µM on LOX (setting [3]) was 65%.

As to `C[C@@]12CN(C(=O)NCCO)C[C@]1(C)CN(c1ccc(N3CCN(S(C)(=O)=O)CC3)cc1)C2` [Example 28, cis-N-(2-Hydroxyethyl)-3a,6a-dimethyl-5-(4-(4-(methylsulfonyl)piperazin-1-yl)phenyl)hexahydropyrrolo[3,4-c]pyrrole-2(1H)-carboxamide], the inhibition at 10 µM at LOX (setting [3]) came out at 94%.

Take `O=C(NC1CCCCC1)N1C[C@@H]2CN(c3ccc(N4CCS(=O)(=O)CC4)cc3)C[C@@H]2C1` [Example 9, cis-N-Cyclohexyl-5-(4-(1,1-dioxidothiomorpholino)phenyl)hexahydropyrrolo[3,4-c]pyrrole-2(1H)-carboxamide]: the inhibition at 10 µM on LOX (setting [3]) was found to be 100%.

With `CCOc1ccc(N2C[C@H]3CN(C(=O)Oc4ccc([N+](=O)[O-])cc4)C[C@H]3C2)cc1` [Example 18, 4-Nitrophenyl 5-(4-ethoxyphenyl)hexahydropyrrolo[3,4-c]pyrrole-2(1H)-carboxylate], the inhibition at 10 µM at LOX (setting [3]) is 97%.

As for `N#CCCCN1C[C@@H]2CN(c3ccc(N4CCS(=O)(=O)CC4)cc3)C[C@@H]2C1` [Example 32, cis-4-(5-(4-(1,1-Dioxidothiomorpholino)phenyl)hexahydropyrrolo[3,4-c]pyrrol-2(1H)-yl)butanenitrile], at LOX (setting [3]), the inhibition at 10 µM was 100%.
